The values below come from US7880042B2, “Tetrahydronaphthalene derivatives, methods for the production thereof, and the use thereof as antiphlogistics” (Bayer Schering Pharma AG, priority 2006, dated 2011).

The subject of assay [1] is lipopolysaccharide (LPS)-initiated secretion of the cytokine IL-8 in the human THP-1 monocyte cell line. Put plainly: Inhibition of LPS-initiated IL-8 secretion in THP-1 cells. The note with it: for IC50 / Emax: Homo sapiens; for IC50: read-out: IL8 IC50; for Emax: read-out: IL8 eff; for Diss. (TATEC50/IL8IC50): ratio TAT EC50 / IL8 IC50. It counts as cell-based.
The subject of assay [2] is tyrosine aminotransferase (TAT). Put plainly: TAT induction in vitro. It counts as cell-based. As to conditions: for Emax: read-out: TAT eff.
Where [3] appears, read: THP-1, prior-art compounds (WO2005/034939).
The mark [4] stands for this setting: prior-art compounds (WO2005/034939).
[5] abbreviates: THP-1, inventive stereoisomers, efficacy of IL-8 inhibition.
Setting [6] is: inventive stereoisomers, LPS-initiated IL-8 secretion, THP-1 cells.
Where [7] appears, read: inventive stereoisomers, efficacy of TAT induction.
Setting [8] is: inventive stereoisomers, in vitro TAT induction.
[9] abbreviates: inventive stereoisomers, in vitro TAT induction, cells printed in μM.

Where two headings read alike, the source gives them in different places.

On to `CC1(C)CC(O)(C(F)(F)F)C(Nc2cc(F)cc3[nH]ncc23)c2ccc(F)c(O)c21` (centres unmarked) [reference compound], for which, in assay [1] (setting [3]), the half-maximal inhibitory concentration (IC50) is 20 nM and the Emax is 88%. The “Diss. (TATEC50/IL8IC50)” value in assay [1] (setting [4]) is 0.22. Further, in assay [2] (setting [4]), it took 0.0043 µM to reach a half-maximal effect (EC50) and the Emax was found to be 100%.
Regarding `CC[C@@H]1C[C@](O)(C(F)(F)F)[C@@H](Nc2cccc3c(=O)[nH]ccc23)c2cc(Cl)c(C)c(O)c21` [Example 121B, 5-{[(1S,2R,4R)-7-chloro-2,5-Dihydroxy-6-methyl-4-ethyl-2-(trifluoromethyl)-1,2,3,4-tetrahydronaphthalen-1-yl]amino}-2H-quinolin-1-one], the figures for the Emax in assay [1] (setting [5]) and in assay [2] (setting [7]) were 88% and 99%, respectively. In addition, the IC50 in assay [1] (setting [6]) amounted to 3.7 nM. Besides, the “Diss. (TATEC50/IL8IC50)” value in assay [1] (inventive stereoisomers) was found to be 81. In assay [2] (setting [8]), this compound came in with an EC50 of 0.3 µM.
For `CC[C@@H]1C[C@](O)(C(F)(F)F)[C@@H](Nc2cc(F)cc3nc(C)ncc23)c2cc(F)c(F)c(O)c21` [Example 51A, (5α,6α,8β)-8-Ethyl-2,3-difluoro-5-[(7-fluoro-2-methylquinazolin-5-yl)amino]-6-(trifluoromethyl)-5,6,7,8-tetrahydronaphthalene-1,6-diol], the results for the Emax in assay [1] (setting [5]) and in assay [2] (setting [7]) were 72% and 81%, respectively. In addition, the IC50 in assay [1] (setting [6]) was 13 nM. In addition, the “Diss. (TATEC50/IL8IC50)” value in assay [1] (inventive stereoisomers) was found to be 11.5. For the same compound, the midpoint of the response in assay [2] (setting [8]), the EC50, lay at 0.15 µM.
For the compound `CCC1CC(O)(C(F)(F)F)C(Nc2cccc3nc(C)ccc23)c2ccc(F)c(O)c21` (centres unmarked) [reference compound], in assay [1] (setting [3]), the IC50 came to 220 nM and the Emax worked out at 69%. Further, the “Diss. (TATEC50/IL8IC50)” value in assay [1] (setting [4]) came to 0.64. In assay [2] (setting [4]), it took 0.14 µM to reach a half-maximal effect (EC50) and the Emax turned out to be 88%.
The like results for `CC1(C)CC(O)(C(F)(F)F)C(Nc2cccc3[nH]c(=O)ccc23)c2ccc(F)c(O)c21` (centres unmarked) [reference compound] were, in that order, 14 nM, 68%, 0.27, 0.0038 µM and 92%.
As to `Cc1ccc2c(N[C@H]3c4ccc(F)c(O)c4[C@H](C)C[C@]3(O)C(F)(F)F)cccc2n1` [Example 1], the Emax in assay [1] (setting [5]) came out at 79%; in assay [2] (setting [7]) it was 62%. Besides, in assay [1] (setting [6]), the IC50 was 22 nM. The “Diss. (TATEC50/IL8IC50)” value in assay [1] (inventive stereoisomers) turned out to be 45.5. The compound further returned an EC50 in assay [2] (setting [9]) of 1 µM.
`CC[C@@H]1C[C@](O)(C(F)(F)F)[C@@H](Nc2cc(F)cc3nc(C)ncc23)c2ccc(F)c(O)c21` [Example 30A, (5S,6R,8R)-8-Ethyl-2-fluoro-5-[(7-fluoro-2-methylquinazolin-5-yl)amino]-6-(trifluoromethyl)-5,6,7,8-tetrahydronaphthalene-1,6-diol]: the Emax amounted to 89% in assay [1] (setting [5]) and 95% in assay [2] (setting [7]). In addition, the IC50 in assay [1] (setting [6]) came to 6.6 nM. For the same compound, the “Diss. (TATEC50/IL8IC50)” value in assay [1] (inventive stereoisomers) is reported as 2.8. In addition, in assay [2] (setting [8]), the EC50 was 0.017 µM.
Regarding `Cc1ncc2c(NC3c4cc(C)c(F)c(O)c4C(C)(C)CC3(O)C(F)(F)F)ccc(F)c2n1` (centres unmarked) [reference compound], in assay [1] (setting [3]), the IC50 was 40 nM and the Emax was 79%. Besides, in assay [1] (setting [4]), the “Diss. (TATEC50/IL8IC50)” value is listed as 0.16. In addition, in assay [2] (setting [4]), the response was half-maximal at 0.0065 µM (EC50) and the Emax was found to be 100%.
`Cc1ncc2c(NC3c4cc(Cl)c(F)c(O)c4C(C)(C)CC3(O)C(F)(F)F)cc(F)c(F)c2n1` (centres unmarked) [reference compound]: in assay [1] (setting [3]), the IC50 is 31 nM and the Emax was found to be 96%. Moreover, the “Diss. (TATEC50/IL8IC50)” value in assay [1] (setting [4]) is 0.14. Moreover, in assay [2] (setting [4]), the EC50 was 0.0042 µM and the Emax amounted to 100%.
Consider `CC[C@H]1C[C@](O)(C(F)(F)F)[C@@H](Nc2cccc3[nH]c(=O)ccc23)c2ccc(F)c(O)c21` (stereo in doubt) [Example 43, 5-{[(1α,2α,4α)-4-Ethyl-6-fluoro-2,5-dihydroxy-2-(trifluoromethyl)-1,2,3,4-tetrahydronaphthalen-1-yl]amino}quinolin-2(1H)-one], for which the figures for the Emax in assay [1] (setting [5]) and in assay [2] (setting [7]) were 88% and 100%, respectively. Besides, the half-inhibitory concentration (IC50) in assay [1] (setting [6]) turned out to be 12 nM. In addition, in assay [1] (inventive stereoisomers), the “Diss. (TATEC50/IL8IC50)” value is given as 3.6. A half-maximal effect in assay [2] (setting [8]) (EC50) was put at 0.043 µM.
For the compound `CC[C@@H]1C[C@](O)(C(F)(F)F)[C@@H](Nc2cccc3nc(C)ncc23)c2ccc(F)c(O)c21` [Example 29A, (5α,6α,8β)-8-Ethyl-2-fluoro-5-[(2-methylquinazolin-5-yl)amino]-6-(trifluoromethyl)-5,6,7,8-tetrahydronaphthalene-1,6-diol], the Emax in assay [1] (setting [5]) is 77%; in assay [2] (setting [7]), 95%. Besides, the half-inhibitory concentration (IC50) in assay [1] (setting [6]) is 16 nM. Moreover, the “Diss. (TATEC50/IL8IC50)” value in assay [1] (inventive stereoisomers) was found to be 7.5. A half-maximal effect in assay [2] (setting [8]) (EC50) was put at 0.12 µM.
With `CCC1CC(O)(C(F)(F)F)C(Nc2cccc3[nH]c(=O)ccc23)c2cc(F)cc(O)c21` (centres unmarked) [Example 75, 5-{[4-Ethyl-7-fluoro-2,5-dihydroxy-2-(trifluoromethyl)-1,2,3,4-tetrahydronaphthalen-1-yl]amino}quinolin-2(1H)-one], the results for the Emax in assay [1] (setting [5]) and in assay [2] (setting [7]) were 68% and 89%, respectively. In addition, the IC50 in assay [1] (setting [6]) is 7.1 nM. For the same compound, the “Diss. (TATEC50/IL8IC50)” value in assay [1] (inventive stereoisomers) turned out to be 16.9. Also, in assay [2] (setting [8]), a half-maximal effect (EC50) was put at 0.12 µM.
On to `Cc1ccc2c(NC3c4ccc(F)c(O)c4C(C(C)C)CC3(O)C(F)(F)F)cccc2n1` (centres unmarked) [Example 65, 2-Fluoro-5-[(2-methylquinolin-5-yl)amino]-8-(Prop-2-yl)-6-(trifluoromethyl)-5,6,7,8-tetrahydronaphthalene-1,6-diol], for which the Emax in assay [1] (setting [5]) turned out to be 58%; in assay [2] (setting [7]), 73%. In addition, in assay [1] (setting [6]), the 50% inhibitory concentration (IC50) was found to be 38 nM. The “Diss. (TATEC50/IL8IC50)” value in assay [1] (inventive stereoisomers) was 26.3. The compound also came in with an EC50 in assay [2] (setting [9]) of 1 µM.
In the case of `Cc1ncc2c(NC3c4ccc(Cl)c(O)c4C(C)(C)CC3(O)C(F)(F)F)ccc(F)c2n1` (centres unmarked) [reference compound], in assay [1] (setting [3]), the IC50 amounted to 22 nM and the Emax was 73%. Besides, in assay [1] (setting [4]), the “Diss. (TATEC50/IL8IC50)” value is 0.14. Further, in assay [2] (setting [4]), a half-maximal effect (EC50) was put at 0.003 µM and the Emax worked out at 98%.
With `CC[C@@H]1C[C@](O)(C(F)(F)F)[C@@H](Nc2cccc3[nH]c(=O)ccc23)c2cc(F)c(F)c(O)c21` [Example 54, 5-{[(1α,2α,4β)-4-ethyl-6,7-difluoro-2,5-dihydroxy-2-(trifluoromethyl)-1,2,3,4-tetrahydronaphthalen-1-yl]amino}quinolin-2(1H)-one], the Emax was 78% in assay [1] (setting [5]) and 76% in assay [2] (setting [7]). Also, the IC50 in assay [1] (setting [6]) is 5.7 nM. Further, the “Diss. (TATEC50/IL8IC50)” value in assay [1] (inventive stereoisomers) was found to be 86. In assay [2] (setting [8]), this compound came in with a concentration for a half-maximal effect (EC50) of 0.49 µM.
As for `CC[C@H]1C[C@](O)(C(F)(F)F)[C@@H](Nc2cc(F)cc3[nH]c(=O)ccc23)c2ccc(Cl)c(O)c21` (stereo in doubt) [Example 101, 5-{[(1α,2α,4α)-6-Chloro-2,5-Dihydroxy-4-ethyl-2-(trifluoromethyl)-1,2,3,4-tetrahydronaphthalen-1-yl]amino}-7-fluoro-1H-quinolin-2-one], the Emax in assay [1] (setting [5]) came out at 92%; in assay [2] (setting [7]) it was 97%. The IC50 in assay [1] (setting [6]) amounted to 1.8 nM. The “Diss. (TATEC50/IL8IC50)” value in assay [1] (inventive stereoisomers) is reported as 41. The same compound registered an EC50 in assay [2] (setting [8]) of 0.074 µM.
